Experimental data published in patent publication US20070117743A1, “New antitumoral compounds” (priority 2003, published 2007).
Where a SMILES comes first, the peptide text is derived from it. Bridges are numbered along the chain shown (N, C = ends). [ ]: non-standard residue; d: D form. The star is where a group is joined. d(aIle) = CC[C@H](C)[C@@H](N)C(=O)O; d(aThr) = C[C@@H](O)[C@@H](N)C(=O)O; Hexanoyl(5-Me) = CC(C)CCCC(=O)*; Orn = NCCC[C@H](N)C(=O)O; Dhb = C/C=C(\N)C(=O)O

Columns and labels:
Assay type in all cases: cell-based, human
SK-BR-3 = assay: SRB colorimetric assay of cell growth and viability, SK-BR-3; conditions: 48 hours exposure, SRB
K-562 = assay: SRB colorimetric assay of cell growth and viability, K-562; conditions: 48 hours exposure, SRB; for CC50: read-out: LC50 K-562
IGROV-1 = assay: SRB colorimetric assay of cell growth and viability, IGROV-1; conditions: 48 hours exposure, SRB
DU-145 = assay: SRB colorimetric assay of cell growth and viability, DU-145; conditions: 48 hours exposure, SRB
HeLa-APL = assay: SRB colorimetric assay of cell growth and viability, HeLa-APL; conditions: 48 hours exposure, SRB; for CC50: read-out: LC50 HELA-APL
A-549 = assay: SRB colorimetric assay of cell growth and viability, A-549; conditions: 48 hours exposure, SRB; for GI50: read-out: GI50 A-549; for CC50: read-out: LC50 A-549
HeLa = assay: SRB colorimetric assay of cell growth and viability, HeLa; conditions: 48 hours exposure, SRB; for CC50: read-out: LC50 HELA
HT-29 = assay: SRB colorimetric assay of cell growth and viability, HT-29; conditions: 48 hours exposure, SRB; for GI50: read-out: GI50 HT-29; for CC50: read-out: LC50 HT-29
LNCaP = assay: SRB colorimetric assay of cell growth and viability, LNCaP; conditions: 48 hours exposure, SRB; for GI50: read-out: GI50 LN-caP; for CC50: read-out: LC50 LN-caP
IGROV-ET = assay: SRB colorimetric assay of cell growth and viability, IGROV-ET; conditions: 48 hours exposure, SRB; for CC50: read-out: LC50 IGROV-ET
LoVo = assay: SRB colorimetric assay of cell growth and viability, LoVo; conditions: 48 hours exposure, SRB; for CC50: read-out: LC50 LOVO
SK-MEL-28 = assay: SRB colorimetric assay of cell growth and viability, SK-MEL-28; conditions: 48 hours exposure, SRB; for CC50: read-out: LC50 MEL-28
PANC-1 = assay: SRB colorimetric assay of cell growth and viability, PANC-1; conditions: 48 hours exposure, SRB; for CC50: read-out: LC50 PANC-1
LoVo-Dox = assay: SRB colorimetric assay of cell growth and viability, LoVo-Dox; conditions: 48 hours exposure, SRB; for CC50: read-out: LC50 LOVO-DOX
Method in brief: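 Sulforhodamine B assay run after 48 h of continuous drug contact; cells seeded 5×10^3/well in RPMI 1640 10% FBS, attached 18 h. Triplicate OD490 values give cytostatic (TGI), cytotoxic (LC) and GI parameters.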

C/C=C1\NC(=O)[C@H](Cc2c[nH]c3ccccc23)NC(=O)[C@@H](C(C)C)NC(=O)[C@@H]([C@@H](C)CC)NC(=O)[C@H](NC(=O)[C@H](NC(=O)[C@H](CCCN)NC(=O)[C@H]2CCCN2C(=O)[C@H](NC(=O)[C@@H](NC(=O)[C@@H](NC(=O)[C@H](NC(=O)CCCC(C)C)C(C)C)[C@@H](C)O)C(C)C)C(C)C)[C@@H](C)CC)[C@@H](C)OC(=O)[C@H](C(C)C)NC1=O [Compound 68, [Trp^3]-KF] ({Hexanoyl(5-Me)}-[dV]TV[dV][dP][Orn][d(aIle)][d(aThr)][d(aIle)][dV]W[Dhb]V; ester 8-C)
GI50 (SK-BR-3): 0.15 µM
LC50 (SK-BR-3): 0.655 µM
TGI SK-BR-3 (SK-BR-3): 3.13E−07 Molar
GI50 (K-562): 3.7 µM
TGI K-562 (K-562): 6.59E−06 Molar
CC50 (K-562): 6.59 µM
GI50 (IGROV-1): 0.087 µM
LC50 (concentration causing 50% net cell killing) (IGROV-1): 0.453 µM
TGI IGROV (IGROV-1): 1.98E−07 Molar
GI50 (DU-145): 0.47 µM
LC50 (concentration causing 50% net cell kill) (DU-145): 2.85 µM
TGI DU-145 (DU-145): 1.21E−06 Molar
GI50 (HeLa-APL): 0.943 µM
TGI HELA-APL (HeLa-APL): 1.90E−06 Molar
CC50 (HeLa-APL): 3.82 µM
TGI A-549 (A-549): 2.83E−06 Molar
GI50 (A-549): 1.56 µM
CC50 (A-549): 5.12 µM
GI50 (HeLa): 1.03 µM
TGI HELA (HeLa): 2.05E−06 Molar
CC50 (HeLa): 4.04 µM
TGI HT-29 (HT-29): 1.40E−06 Molar
GI50 (HT-29): 0.512 µM
CC50 (HT-29): 3.66 µM
TGI LN-caP (LNCaP): 2.36E−06 Molar
GI50 (LNCaP): 1.05 µM
CC50 (LNCaP): 5.29 µM
GI50 (IGROV-ET): 0.15 µM
TGI IGROV-ET (IGROV-ET): 2.73E−07 Molar
CC50 (IGROV-ET): 0.499 µM
GI50 (LoVo): 0.337 µM
TGI LOVO (LoVo): 9.49E−07 Molar
CC50 (LoVo): 2.62 µM
GI50 (SK-MEL-28): 1.25 µM
TGI MEL-28 (SK-MEL-28): 2.17E−06 Molar
CC50 (SK-MEL-28): 3.77 µM
GI50 (PANC-1): 6.59 µM
TGI PANC-1 (PANC-1): 6.59E−06 Molar
CC50 (PANC-1): 6.59 µM
GI50 (LoVo-Dox): 0.281 µM
TGI LOVO-DOX (LoVo-Dox): 6.47E−07 Molar
CC50 (LoVo-Dox): 2.53 µM

C/C=C1\NC(=O)[C@@H](Cc2ccccc2)NC(=O)[C@H](C(C)C)NC(=O)[C@H]([C@H](C)CC)NC(=O)[C@@H](NC(=O)[C@@H](NC(=O)[C@@H](CCCN)NC(=O)[C@@H]2CCCN2C(=O)[C@@H](NC(=O)[C@H](NC(=O)[C@H](NC(=O)[C@@H](NC(=O)CCCC(C)C)C(C)C)[C@H](C)O)C(C)C)C(C)C)[C@H](C)CC)[C@H](C)OC(=O)[C@@H](C(C)C)NC1=O [Compound 69, [D-Val^1, D-Phe^3, Val^4, alo-Ile^5, alo-Thr^6, alo-Ile^7, D-Orn^8, Pro^9, Val^10, D-Val^11, D-Thr^12, Val^13] KF]
GI50 (SK-BR-3): 6.72 µM
LC50 (SK-BR-3): ≥ 6.77 µM
TGI SK-BR-3 (SK-BR-3): 6.77E−06 Molar
GI50 (K-562): ≥ 6.77 µM
TGI K-562 (K-562): 6.77E−06 Molar
CC50 (K-562): ≥ 6.77 µM
GI50 (IGROV-1): 4.37 µM
LC50 (concentration causing 50% net cell killing) (IGROV-1): ≥ 6.77 µM
TGI IGROV (IGROV-1): 6.77E−06 Molar
GI50 (DU-145): ≥ 6.77 µM
LC50 (concentration causing 50% net cell kill) (DU-145): ≥ 6.77 µM
TGI DU-145 (DU-145): 6.77E−06 Molar
GI50 (HeLa-APL): ≥ 6.77 µM
TGI HELA-APL (HeLa-APL): 6.77E−06 Molar
CC50 (HeLa-APL): ≥ 6.77 µM
TGI A-549 (A-549): 6.77E−06 Molar
GI50 (A-549): ≥ 6.77 µM
CC50 (A-549): ≥ 6.77 µM
GI50 (HeLa): ≥ 6.77 µM
TGI HELA (HeLa): 6.77E−06 Molar
CC50 (HeLa): ≥ 6.77 µM
TGI HT-29 (HT-29): 6.77E−06 Molar
GI50 (HT-29): ≥ 6.77 µM
CC50 (HT-29): ≥ 6.77 µM
TGI LN-caP (LNCaP): 6.77E−06 Molar
GI50 (LNCaP): 2.35 µM
CC50 (LNCaP): ≥ 6.77 µM
GI50 (IGROV-ET): ≥ 6.77 µM
TGI IGROV-ET (IGROV-ET): 6.77E−06 Molar
CC50 (IGROV-ET): ≥ 6.77 µM
GI50 (LoVo): ≥ 6.77 µM
TGI LOVO (LoVo): 6.77E−06 Molar
CC50 (LoVo): ≥ 6.77 µM
GI50 (SK-MEL-28): ≥ 6.77 µM
TGI MEL-28 (SK-MEL-28): 6.77E−06 Molar
CC50 (SK-MEL-28): ≥ 6.77 µM
GI50 (PANC-1): ≥ 6.77 µM
TGI PANC-1 (PANC-1): 6.77E−06 Molar
CC50 (PANC-1): ≥ 6.77 µM
GI50 (LoVo-Dox): ≥ 6.77 µM
TGI LOVO-DOX (LoVo-Dox): 6.77E−06 Molar
CC50 (LoVo-Dox): ≥ 6.77 µM
